The text below walks through data of patent US20020128189A1, “Ubiquitination of the transcription factor E2A” (President and Fellows of Harvard College, a Massachusetts …, priority 1996, published 2002).

The test system of one assay is ovalbumin degradation. Conditions: Rock et al., cited from earlier work; for IC50: read-out: concentration causing 50% inhibition of ovalbumin degradation.
A further assay concerns the target T1, 20S proteasome (Homo sapiens, UniProt P28074).
T1 sequence (P28074 60-263): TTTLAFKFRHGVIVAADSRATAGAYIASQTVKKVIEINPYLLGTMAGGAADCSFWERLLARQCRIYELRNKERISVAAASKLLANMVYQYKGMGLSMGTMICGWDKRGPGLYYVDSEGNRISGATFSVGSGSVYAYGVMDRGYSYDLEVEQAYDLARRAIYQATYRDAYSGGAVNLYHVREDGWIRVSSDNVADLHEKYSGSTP
Conditions: cited from earlier work.

In assay [1] the test system is NF-kB precursor protein p105. Conditions: cited from earlier work.
In assay [2] the test system is p27 inhibitor of cyclin-dependent kinases. Conditions: cited from earlier work.
A further assay deals with human E12. In words: Pulse-chase analysis of E12 degradation in COS7 cells treated with proteasome/protease inhibitors. The settings on record: 60 min pulse, 3 hour chase. The class given is cell-based. The protocol:
FIG. 2 is a bar graph representing the relative expression of E12 after treatment with the proteasome inhibitor MG132 and the protease inhibitor leupeptin, as follows. COS cells were electroporated with a human E12 expression plasmid. After electroporation (48 hours), cells were treated with either DMSO (a diluent for MG132), 50 μM MG132, or 1 μg/ml leupeptin for 1 hour. The cells were then pulse-chased with [^35S] methionine and the cell extracts were immunoprecipitated with anti-E12 antibody and analyzed by SDS-PAGE fluorography. Inhibitors were present throughout the entire pulse-chase period.
Cells in 100 mm dishes (either transfected cells 48 hours after transfection or stable cell lines at about 80% confluence) were starved in Met-free DMEM (supplemented with 5% dialyzed fetal bovine serum) for 60 minutes at 37° C. Cells were then pulse-labeled at 37° C. with 100 μCi/ml [^35S]met for 60 minutes at 37° C. Cells were chased in warm DMEM supplemented with 100 μg/ml Met. For the proteasome inhibitor experiment, the inhibitor MG132 […] was added 1 hour before pulse-chase and was present throughout the entire period. […] Incorporation of ^35S into the total protein pool was determined by trichloroacetic acid (TCA) precipitation. […] The bands were measured using a PhosphorImager (Molecular Dynamics). […]

Structures are written as SMILES. Square brackets hold non-standard residues; d marks the D form. Peptide text beside a SMILES is read from it. * marks the point of attachment. Nle = CCCC[C@H](N)C(=O)O; Nva = CCC[C@H](N)C(=O)O; Cbz = O=C(OCc1ccccc1)* A value given as a limit tells only on which side of the number the result lay.

Take `CSCC[C@@H](C=O)NC(=O)[C@H](CC(C)C)NC(=O)[C@H](CC(C)C)NC(C)=O` [LLM, N-acetyl-L-leucinyl-L-leucinyl-methional] (Ac-Leu-Leu-Met-aldehyde): in the assay on ovalbumin degradation, the IC50 is > 100000 nM.

On to `CCCC[C@@H](C=O)NC(=O)[C@H](CC(C)C)NC(=O)[C@H](CC(C)C)NC(C)=O` [MG101] (Ac-Leu-Leu-[Nle]-aldehyde), for which, at 20S proteasome, the “inhibition of the chymotryptic site on the 20S proteasome” value (“inhibition of the chymotryptic site” for short) is “potent inhibitors”. Besides, the “effect on processing of the NF-kB precursor protein p105” value in assay [1] is listed as “block the processing”. In addition, the “effect on degradation of the p27 inhibitor of cyclin-dependent kinases” value in assay [2] is “inhibit the degradation”.

For `CCC[C@@H](C=O)NC(=O)[C@H](CC(C)C)NC(=O)[C@H](CC(C)C)NC(=O)OCc1ccccc1` [MG115, N-carbobenzoxyl-L-leucinyl-L-leucinyl-L-norvalinal] (Cbz-Leu-Leu-[Nva]-aldehyde), the “inhibition of the chymotryptic site” value on 20S proteasome is recorded as “potent inhibitors”. In the assay on ovalbumin degradation, the “potency relative to LLnL (ovalbumin proteolysis)” value is “approximately 5 fold” and the IC50 was 400 nM.

For `CC(C)C[C@@H](C=O)NC(=O)[C@H](CC(C)C)NC(=O)[C@H](CC(C)C)NC(=O)OCc1ccccc1` [MG132] (Cbz-Leu-Leu-Leu-aldehyde), at 20S proteasome, the “inhibition of the chymotryptic site” value is given as “potent inhibitors”. Besides, in assay [1], the “effect on processing of the NF-kB precursor protein p105” value was “block the processing”. For the same molecule, the “effect on degradation of the p27 inhibitor of cyclin-dependent kinases” value in assay [2] is “inhibit the degradation”. Moreover, in the assay with human E12 (50 μM MG132 added 1 hour before and present throughout), the “E12 protein stability (effect on E12 degradation)” value was “stabilized”.

`CC(=O)N[C@@H](CC(C)C)C(=O)N[C@@H](CC(C)C)C(=O)N[C@H](C=O)CCCNC(=N)N` [leupeptin]: the “E12 protein stability (effect on E12 degradation)” value with human E12 (leupeptin 1 μg/ml added 1 hour before and present throughout) is given as “no effect”.
